Data on eight compounds can be found in US8193191B2, “Urotensin II receptor antagonists” (Janssen Pharmaceutica N.V., priority 2006, dated 2012).

Assay [1] has as its target T1, endogenous human UII receptor (Homo sapiens, UniProt Q9UKP6).
T1 sequence (Q9UKP6 1-389): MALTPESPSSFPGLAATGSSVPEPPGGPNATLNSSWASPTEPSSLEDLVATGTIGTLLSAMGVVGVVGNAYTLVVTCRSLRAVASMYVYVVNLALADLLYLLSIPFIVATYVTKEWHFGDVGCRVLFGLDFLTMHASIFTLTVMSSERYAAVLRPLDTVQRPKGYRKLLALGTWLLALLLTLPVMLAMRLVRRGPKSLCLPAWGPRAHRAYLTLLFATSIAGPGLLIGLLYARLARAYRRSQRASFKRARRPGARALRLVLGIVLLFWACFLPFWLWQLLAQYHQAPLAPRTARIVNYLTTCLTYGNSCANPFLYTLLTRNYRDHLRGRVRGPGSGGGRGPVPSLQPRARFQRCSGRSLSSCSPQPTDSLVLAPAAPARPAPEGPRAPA
The assay can be described thus: Human Radioligand Binding Assay ((^125I)-U-II binding to human skeletal muscle myoblasts).

The target of assay [2] is T2, rat GPR14 (U-II receptor) (Rattus norvegicus, UniProt P49684).
T2 construct: expressed in transfected cells
T2 sequence (P49684 1-386): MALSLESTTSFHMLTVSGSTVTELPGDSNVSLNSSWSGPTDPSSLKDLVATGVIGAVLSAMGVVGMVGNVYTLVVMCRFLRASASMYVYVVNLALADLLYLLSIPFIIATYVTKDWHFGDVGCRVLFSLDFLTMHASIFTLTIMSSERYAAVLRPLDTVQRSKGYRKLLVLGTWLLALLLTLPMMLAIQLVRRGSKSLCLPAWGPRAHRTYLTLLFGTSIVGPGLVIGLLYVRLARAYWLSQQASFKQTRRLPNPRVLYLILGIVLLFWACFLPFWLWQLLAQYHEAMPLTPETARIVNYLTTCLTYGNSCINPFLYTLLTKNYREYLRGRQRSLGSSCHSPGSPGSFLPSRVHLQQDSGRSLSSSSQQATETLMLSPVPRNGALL
The assay can be described thus: Rat UII Calcium Mobilization FLIPR Assay. It counts as cell-based. Conditions: average value for the compound tested; read-out: Rat UII FLIPR Average IC50. In short, it runs like this:
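CHO cells stably expressing rat U-II receptor, seeded 24 h before assay, were loaded with FLIPR calcium dye in HBSS/20 mM HEPES/0.1% BSA/2.5 mM probenecid, pH 7.4, for 1 h at 37° C. Calcium mobilization then read by FLIPR at 23° C.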
In general terms: Calcium flux is commonly read through the fluorescence of an indicator in the cells.

The target in assay [3] is T3, Human UII receptor, 6D9 human rhabdomyosarcoma cells (Homo sapiens, UniProt Q9UKP6).
T3 construct: 6D9: isolated by dilution subcloning of RMS13 cells, ATCC® Number: CRL-2061; host or cells: 6D9 human rhabdomyosarcoma cells (subclone of RMS13)
T3 sequence (Q9UKP6 1-389): T1 sequence (Q9UKP6 1-389)
Put plainly: Human UII Calcium Mobilization Assay. Type of assay: cell-based. Conditions: average value, FLIPR TETRA, read-out: Human UII Ca^+ Mobilization Average IC50. In short, it runs like this: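 6D9 rhabdomyosarcoma cells loaded 45 min at 37° C with calcium dye (1.25 mM probenecid, 0.01% FBS, HBSS/20 mM HEPES). Antagonist and U-II agonist added at room temperature; FLIPR fluorescence read over 4 min; EC50/IC50 fitted. DMSO ≤0.1% final.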

The Ki is the equilibrium dissociation constant of an inhibitor or competing ligand from its target. High values mean a looser hold on the target, low ones a stronger hold on the target. What is called IC50 is the concentration needed to halve the response being measured. Regarding `COc1ccc([C@@H](CCCNC(=O)c2cccnc2)N2C(=O)c3cccc(N4CCN([C@H](C)c5ccccc5)CC4)c3C2=O)cc1OC` [Cpd 151, (R)-N-(4-(3,4-dimethoxy-phenyl)-4-{1,3-dioxo-4-[4-(1R)-(1-phenyl-ethyl)-piperazin-1-yl]-1,3-dihydro-isoindol-2-yl}-butyl)-nicotinamide], the affinity in assay [1], expressed as Ki, was 74 nM. Further, the IC50 in assay [2] is 14 nM; in assay [3], 1000 nM.
The like results for `COc1ccc([C@@H](CCCNC(=O)c2cncn2C)N2C(=O)c3cccc(N4CCN([C@H](C)c5ccccc5)CC4)c3C2=O)cc1OC` [Cpd 152, (R)-3-methyl-3H-imidazole-4-carboxylic acid (4-(3,4-dimethoxy-phenyl)-4-{1,3-dioxo-4-[4-(1R)-(1-phenyl-ethyl)-piperazin-1-yl]-1,3-dihydro-isoindol-2-yl}-butyl)-amide] were, in that order, 69 nM, 17 nM and 660 nM.
Take `COc1ccc([C@@H](CCCNC(=O)c2cn(C)cn2)N2C(=O)c3cccc(N4CCN([C@H](C)c5ccccc5)CC4)c3C2=O)cc1OC` [Cpd 153, (R)-1-methyl-1H-imidazole-4-carboxylic acid (4-(3,4-dimethoxy-phenyl)-4-{1,3-dioxo-4-[4-(1R)-(1-phenyl-ethyl)-piperazin-1-yl]-1,3-dihydro-isoindol-2-yl}-butyl)-amide]: the Ki in assay [1] worked out at 88 nM. The 50% inhibitory concentration (IC50) in assay [2] came out at 13 nM; in assay [3] it was 1200 nM.
The corresponding values for `COc1ccc([C@@H](CCCNC(=O)c2ccncc2)N2C(=O)c3cccc(N4CCN([C@H](C)c5ccccc5)CC4)c3C2=O)cc1OC` [Cpd 154, (R)-N-(4-(3,4-dimethoxy-phenyl)-4-{1,3-dioxo-4-[4-(1R)-(1-phenyl-ethyl)-piperazin-1-yl]-1,3-dihydro-isoindol-2-yl}-butyl)-isonicotinamide] are 84 nM, 13 nM and 1200 nM.
Take `COc1ccc([C@@H](CCCNC(=O)C2CCCO2)N2C(=O)c3cccc(N4CCN([C@H](C)c5ccccc5)CC4)c3C2=O)cc1OC` (stereo partly drawn) [Cpd 155, (R)-tetrahydro-furan-2-carboxylic acid (4-(3,4-dimethoxy-phenyl)-4-{1,3-dioxo-4-[4-(1R)-(1-phenyl-ethyl)-piperazin-1-yl]-1,3-dihydro-isoindol-2-yl}-butyl)-amide]: in assay [1], the affinity, expressed as Ki, was 45 nM. The 50% inhibitory concentration (IC50) stood at 9.4 nM in assay [2] and 400 nM in assay [3].
Compound `COc1ccc([C@@H](CCCNC(=O)c2csc(C)n2)N2C(=O)c3cccc(N4CCN([C@H](C)c5ccccc5)CC4)c3C2=O)cc1OC` [Cpd 156, (R)-2-methyl-thiazole-4-carboxylic acid (4-(3,4-dimethoxy-phenyl)-4-{1,3-dioxo-4-[4-(1R)-(1-phenyl-ethyl)-piperazin-1-yl]-1,3-dihydro-isoindol-2-yl}-butyl)-amide] registered a Ki in assay [1] of 84 nM. Moreover, the IC50 is 35 nM in assay [2] and 490 nM in assay [3].
Take `COc1ccc([C@@H](CCCNC(=O)c2ccc(S(C)(=O)=O)s2)N2C(=O)c3cccc(N4CCN([C@H](C)c5ccccc5)CC4)c3C2=O)cc1OC` [Cpd 157, (R)-5-methanesulfonyl-thiophene-2-carboxylic acid (4-(3,4-dimethoxy-phenyl)-4-{1,3-dioxo-4-[4-(1R)-(1-phenyl-ethyl)-piperazin-1-yl]-1,3-dihydro-isoindol-2-yl}-butyl)-amide]: in assay [1], the affinity, expressed as Ki, was 260 nM. The values for the 50% inhibitory concentration (IC50) in assay [2] and in assay [3] were 32 nM and 680 nM, respectively.
As for `COc1ccc([C@@H](CCCNC(=O)c2conc2C)N2C(=O)c3cccc(N4CCN([C@H](C)c5ccccc5)CC4)c3C2=O)cc1OC` [Cpd 158, (R)-3-methyl-isoxazole-4-carboxylic acid (4-(3,4-dimethoxy-phenyl)-4-{1,3-dioxo-4-[4-(1R)-(1-phenyl-ethyl)-piperazin-1-yl]-1,3-dihydro-isoindol-2-yl}-butyl)-amide], the Ki in assay [1] came to 99 nM. For the same compound, the IC50 in assay [2] turned out to be 16 nM; in assay [3], 330 nM.
